Data published in paper PMC7472781, “Inherited and Acquired Determinants of Hepatic CYP3A Activity in Humans” (Frontiers in Genetics, 2020).
Marks after values point to notes of the source that are not given here.

Legend:
[1] = test system: CYP3A; test: Within- and between-subject variance and genetic component (Kalow) of the 4 CYP3A biomarkers, three occasions
Experimental: (§1) Predefined primary endpoint was midazolam AUC. All concentrations and pharmacokinetic parameters were determined on three independent occasions to compare intra- versus interindividual variation. […] In structural equation modeling of heritability and in the other multifactorial analyses the individual means from the measurements or parameters obtained on the three occasions were used. Using structural equation analysis, variation was separated into additive genetic (A), common environmental (C), and unique environmental (E) effects. The heritability is the proportion of the variance resulting from the genetic effect (A). In order to investigate the genetic, common environmental, and unique environmental effects of the different traits taken into account, the possible correlation between traits were fitted in multivariate ACE, AE, and CE biometrical models using the mcglm package for multivariate regression analysis in R. As an exploratory analysis, we computed the correlation between MZ and DZ twins based on an unstructured (equal mean and variance for MZ and DZ twins) model. In all models, the mean structure for each trait was specified as a linear function of the covariates age and sex.

[2] = test system: CYP3A; test: Twin correlations and structural equation modeling (ACE, AE, CE) of heritability of the CYP3A biomarkers; details: in vivo
Experimental: as §1

[3] = test system: CYP3A; test: Multifactorial analysis of genetic and environmental effects on the CYP3A probe drugs and biomarkers; details: in vivo
Experimental: DNA was isolated from whole venous blood by automated solid phase extraction with the EZ1^TM DNA Blood 350 μl Kit using the Bio-robot EZ1^TM (both Qiagen, Hilden, Germany). The CYP3A4^∗1b and ^∗22 alleles as well as the CYP3A5^∗1/^∗3 polymorphism were genotyped by DNA sequencing using fluorescence-labeled dideoxynucleotides and detection via Gene Mapper v3.7 Software® (Applied Biosystems®, Foster City, United States). Zygosity was assessed by analyzing variants in 23 polymorphic genes. Monozygosity was concluded when there were no differences regarding the polymorphisms in both siblings of one twin pair.
as §1

[4] = test system: CYP3A; details: in vivo
Experimental: Cholesterol and 4ß-OH cholesterol were measured in the baseline blood samples before drug administration. All samples were centrifuged for 10 min (4000 rpm) at 4°C and the plasma was stored at −20°C.
Calibration samples for cholesterol were prepared in isooctane with 10% 2-propanol in the concentration range from 1 to 30 μg. Calibration samples for 4ß-hydroxycholesterol were prepared in isooctane with 0.8% 2-propanol from 5 to 100 ng. […] Calibration samples were worked up as the samples, and analyzed together with the unknown samples. […] The concentration in unknown samples was obtained from the regression line.

Q: How did the Genetic component ([1]; from intra- and inter-individual variation, independent of twin status, AUC, plasma concentration or 24-h urine Ae) turn out when C[C@]12CCC(=O)C=C1[C@@H](O)C[C@@H]1[C@@H]2[C@@H](O)C[C@@]2(C)[C@H]1CC[C@]2(O)C(=O)CO [6ß-OH-cortisol, 6-ß-hydroxycortisol] was run?
A: Its Genetic component is 0.457.

Q: What about the “Variance between subjects (Varb) of Ae (24-h-urine)” value ([1]; human, in vivo) of the same molecule?
A: Its value is 8141 μg/24 h.

Q: And the “Variance within subjects (Varw) of Ae (24-h-urine)” value ([1]; three occasions)?
A: The value was 4247 μg/24 h.

Q: What about the “Variation due to additive genetic (inherited) effects” value [2] of the same molecule?
A: The value was 31%.

Q: And the “rdz (correlation between DZ twins)” value [2]?
A: Its value is 0.50 (0.13)*.

Q: What about the “rmz (correlation between MZ twins)” value [2] of the same molecule?
A: The value was 0.68 (0.06)*.

Q: What about the “Coefficient, CYP3A4*22” value [3] of the same molecule?
A: The value was −127.40.

Q: And the “Coefficient, CYP3A5*3” value [3]?
A: The value was 0.70.

Q: What about the “Coefficient, age” value [3] of the same molecule?
A: Its value is 0.94.

Q: What about the “Coefficient, lean body weight” value [3] of the same molecule?
A: Its value is −1.35.

Q: What about the “Coefficient, sex” value [3] of the same molecule?
A: The value was −9.28.

Q: What about the “Coefficient, smoking status” value [3] of the same molecule?
A: The value was −8.66.

Q: And the “Coefficient, oral contraceptives” value ([3]; po)?
A: The value was 3.37.

Q: What about the “Ae (24-h-urine), mean” value [4] of the same molecule?
A: The value was 222 μg/24 h.
